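Five compound concentrations were applied to cells in 96-well plates for 48 hours; endpoints were derived by simple linear interpolation of the resulting dose-response curve. The concentration for 50% growth inhibition is given as GI50.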 The source made the active and inactive calls. No stated cut-off is given here; in the data, active = GI50 up to about 1.1 µM and inactive = higher.
Assays:
Assay in all cases: DTP human tumour cell line panel, 48 h
786-0 = tested on: 786-0
A498 = tested on: A498
A549 = tested on: A549
ACHN = tested on: ACHN
BT-549 = tested on: BT-549
CAKI-1 = tested on: CAKI-1
CCRF-CEM = tested on: CCRF-CEM
COLO 205 = tested on: COLO 205
DU-145 = tested on: DU-145
EKVX = tested on: EKVX
HCC 2998 = tested on: HCC 2998
HCT-116 = tested on: HCT-116
HCT-15 = tested on: HCT-15
HL-60 = tested on: HL-60
HOP-62 = tested on: HOP-62
HOP-92 = tested on: HOP-92
HT-29 = tested on: HT-29
Hs-578T = tested on: Hs-578T
IGROV-1 = tested on: IGROV-1
K562 = tested on: K562
KM12 = tested on: KM12
LOX IMVI = tested on: LOX IMVI
M14 = tested on: M14
MCF7 = tested on: MCF7
MDA-MB-231 = tested on: MDA-MB-231
MDA-MB-435 = tested on: MDA-MB-435
MDA-N = tested on: MDA-N
MOLT-4 = tested on: MOLT-4
Malme-3M = tested on: Malme-3M
NCI-H226 = tested on: NCI-H226
NCI-H23 = tested on: NCI-H23
NCI-H460 = tested on: NCI-H460
NCI-H522 = tested on: NCI-H522
NCI/ADR-RES = tested on: NCI/ADR-RES
OVCAR-3 = tested on: OVCAR-3
OVCAR-4 = tested on: OVCAR-4
OVCAR-5 = tested on: OVCAR-5
OVCAR-8 = tested on: OVCAR-8
PC-3 = tested on: PC-3
RPMI-8226 = tested on: RPMI-8226
RXF 393 = tested on: RXF 393
SF-268 = tested on: SF-268
SF-295 = tested on: SF-295
SF-539 = tested on: SF-539
SK-MEL-28 = tested on: SK-MEL-28
SK-MEL-2 = tested on: SK-MEL-2
SK-MEL-5 = tested on: SK-MEL-5
SK-OV-3 = tested on: SK-OV-3
SN12C = tested on: SN12C
SNB-19 = tested on: SNB-19
SNB-75 = tested on: SNB-75
SW-620 = tested on: SW-620
T47D = tested on: T47D
TK-10 = tested on: TK-10
U-251 = tested on: U-251
UACC-257 = tested on: UACC-257
UACC-62 = tested on: UACC-62
UO-31 = tested on: UO-31
SR = tested on: SR

Structure (SMILES): COc1ccc(C(CC(=O)c2ccc3c(c2)OCO3)c2c(O)oc3ccccc3c2=O)cc1OC (configuration not stated)
- GI50 (786-0): > 100 µM (inactive)
- GI50 (A498): > 100 µM (inactive)
- GI50 (A549): 51.1 µM (inactive)
- GI50 (ACHN): > 100 µM (inactive)
- GI50 (BT-549): 36.2 µM (inactive)
- GI50 (CAKI-1): > 100 µM (inactive)
- GI50 (CCRF-CEM): > 100 µM (inactive)
- GI50 (COLO 205): 63.4 µM (inactive)
- GI50 (DU-145): > 100 µM (inactive)
- GI50 (EKVX): > 100 µM (inactive)
- GI50 (HCC 2998): > 100 µM (inactive)
- GI50 (HCT-116): 75.3 µM (inactive)
- GI50 (HCT-15): > 100 µM
- GI50 (HL-60): > 100 µM (inactive)
- GI50 (HOP-62): > 100 µM (inactive)
- GI50 (HOP-92): 38.5 µM (inactive)
- GI50 (HT-29): 72.6 µM (inactive)
- GI50 (Hs-578T): 45.8 µM (inactive)
- GI50 (IGROV-1): > 100 µM (inactive)
- GI50 (K562): 63.5 µM (inactive)
- GI50 (KM12): > 100 µM (inactive)
- GI50 (LOX IMVI): 66.5 µM (inactive)
- GI50 (M14): 1 µM (active)
- GI50 (MCF7): 69.3 µM (inactive)
- GI50 (MDA-MB-231): > 100 µM (inactive)
- GI50 (MDA-MB-435): > 100 µM (inactive)
- GI50 (MDA-N): > 100 µM (inactive)
- GI50 (MOLT-4): > 100 µM (inactive)
- GI50 (Malme-3M): > 100 µM (inactive)
- GI50 (NCI-H226): > 100 µM (inactive)
- GI50 (NCI-H23): 78 µM (inactive)
- GI50 (NCI-H460): 44.7 µM (inactive)
- GI50 (NCI-H522): > 100 µM (inactive)
- GI50 (NCI/ADR-RES): > 100 µM (inactive)
- GI50 (OVCAR-3): 82.8 µM (inactive)
- GI50 (OVCAR-4): 61.8 µM (inactive)
- GI50 (OVCAR-5): > 100 µM (inactive)
- GI50 (OVCAR-8): > 100 µM (inactive)
- GI50 (PC-3): 88.5 µM (inactive)
- GI50 (RPMI-8226): 45.1 µM (inactive)
- GI50 (RXF 393): > 100 µM (inactive)
- GI50 (SF-268): > 100 µM (inactive)
- GI50 (SF-295): > 100 µM (inactive)
- GI50 (SF-539): > 100 µM (inactive)
- GI50 (SK-MEL-28): > 100 µM (inactive)
- GI50 (SK-MEL-2): > 100 µM (inactive)
- GI50 (SK-MEL-5): 47 µM (inactive)
- GI50 (SK-OV-3): > 100 µM (inactive)
- GI50 (SN12C): > 100 µM (inactive)
- GI50 (SNB-19): > 100 µM (inactive)
- GI50 (SNB-75): > 100 µM (inactive)
- GI50 (SW-620): > 100 µM (inactive)
- GI50 (T47D): > 100 µM (inactive)
- GI50 (TK-10): 67.8 µM (inactive)
- GI50 (U-251): > 100 µM (inactive)
- GI50 (UACC-257): > 100 µM (inactive)
- GI50 (UACC-62): 40.6 µM (inactive)
- GI50 (UO-31): 73.3 µM (inactive)

Structure (SMILES): CC(C)=CCOC(=O)C(C)=[N+]=[N-]
- GI50 (786-0): > 100 µM (inactive)
- GI50 (A498): > 100 µM (inactive)
- GI50 (ACHN): > 100 µM (inactive)
- GI50 (BT-549): > 100 µM (inactive)
- GI50 (CAKI-1): > 100 µM (inactive)
- GI50 (COLO 205): > 100 µM (inactive)
- GI50 (DU-145): > 100 µM (inactive)
- GI50 (EKVX): > 100 µM (inactive)
- GI50 (HCC 2998): > 100 µM (inactive)
- GI50 (HCT-116): > 100 µM (inactive)
- GI50 (HCT-15): > 100 µM
- GI50 (HL-60): 42.6 µM (inactive)
- GI50 (HOP-62): > 100 µM (inactive)
- GI50 (HT-29): > 100 µM (inactive)
- GI50 (Hs-578T): > 100 µM (inactive)
- GI50 (IGROV-1): > 100 µM (inactive)
- GI50 (K562): > 100 µM (inactive)
- GI50 (KM12): > 100 µM (inactive)
- GI50 (LOX IMVI): > 100 µM (inactive)
- GI50 (MCF7): > 100 µM (inactive)
- GI50 (MDA-MB-231): > 100 µM (inactive)
- GI50 (MDA-MB-435): > 100 µM (inactive)
- GI50 (MDA-N): > 100 µM (inactive)
- GI50 (MOLT-4): 59 µM (inactive)
- GI50 (Malme-3M): > 100 µM (inactive)
- GI50 (NCI-H226): > 100 µM (inactive)
- GI50 (NCI-H23): > 100 µM (inactive)
- GI50 (NCI-H460): > 100 µM (inactive)
- GI50 (NCI-H522): > 100 µM (inactive)
- GI50 (NCI/ADR-RES): > 100 µM (inactive)
- GI50 (OVCAR-3): > 100 µM (inactive)
- GI50 (OVCAR-4): > 100 µM (inactive)
- GI50 (OVCAR-5): > 100 µM (inactive)
- GI50 (OVCAR-8): > 100 µM (inactive)
- GI50 (PC-3): > 100 µM (inactive)
- GI50 (RPMI-8226): > 100 µM (inactive)
- GI50 (SF-268): > 100 µM (inactive)
- GI50 (SF-295): > 100 µM (inactive)
- GI50 (SK-MEL-28): > 100 µM (inactive)
- GI50 (SK-MEL-5): > 100 µM (inactive)
- GI50 (SN12C): > 100 µM (inactive)
- GI50 (SNB-19): > 100 µM (inactive)
- GI50 (SNB-75): > 100 µM (inactive)
- GI50 (SR): > 100 µM (inactive)
- GI50 (SW-620): > 100 µM (inactive)
- GI50 (T47D): > 100 µM (inactive)
- GI50 (TK-10): > 100 µM (inactive)
- GI50 (U-251): > 100 µM (inactive)
- GI50 (UACC-257): > 100 µM (inactive)
- GI50 (UACC-62): > 100 µM (inactive)
- GI50 (UO-31): > 100 µM (inactive)

Structure (SMILES): COc1cc(OC)c2c(c1)OC(c1ccccc1)CC2=O (configuration not stated) [DIMETHYLPINOCEMBRIN]
- GI50 (786-0): > 10 µM (inactive)
- GI50 (A549): > 10 µM (inactive)
- GI50 (ACHN): > 10 µM (inactive)
- GI50 (BT-549): > 10 µM (inactive)
- GI50 (CAKI-1): > 10 µM (inactive)
- GI50 (CCRF-CEM): > 10 µM (inactive)
- GI50 (COLO 205): > 10 µM (inactive)
- GI50 (DU-145): > 10 µM (inactive)
- GI50 (EKVX): > 10 µM (inactive)
- GI50 (HCC 2998): > 10 µM (inactive)
- GI50 (HCT-116): > 10 µM (inactive)
- GI50 (HCT-15): > 10 µM
- GI50 (HL-60): > 10 µM (inactive)
- GI50 (HOP-62): > 10 µM (inactive)
- GI50 (HOP-92): > 10 µM (inactive)
- GI50 (HT-29): > 10 µM (inactive)
- GI50 (Hs-578T): > 10 µM (inactive)
- GI50 (IGROV-1): > 10 µM (inactive)
- GI50 (K562): > 10 µM (inactive)
- GI50 (KM12): > 10 µM (inactive)
- GI50 (LOX IMVI): > 10 µM (inactive)
- GI50 (M14): > 10 µM (inactive)
- GI50 (MCF7): > 10 µM (inactive)
- GI50 (MDA-MB-231): > 10 µM (inactive)
- GI50 (MDA-MB-435): > 10 µM (inactive)
- GI50 (MDA-N): > 10 µM (inactive)
- GI50 (MOLT-4): > 10 µM (inactive)
- GI50 (Malme-3M): > 10 µM (inactive)
- GI50 (NCI-H226): > 10 µM (inactive)
- GI50 (NCI-H23): > 10 µM (inactive)
- GI50 (NCI-H460): > 10 µM (inactive)
- GI50 (NCI-H522): > 10 µM (inactive)
- GI50 (NCI/ADR-RES): > 10 µM (inactive)
- GI50 (OVCAR-3): > 10 µM (inactive)
- GI50 (OVCAR-4): > 10 µM (inactive)
- GI50 (OVCAR-5): > 10 µM (inactive)
- GI50 (OVCAR-8): > 10 µM (inactive)
- GI50 (PC-3): > 10 µM (inactive)
- GI50 (RPMI-8226): > 10 µM (inactive)
- GI50 (RXF 393): > 10 µM (inactive)
- GI50 (SF-268): > 10 µM (inactive)
- GI50 (SF-295): > 10 µM (inactive)
- GI50 (SF-539): > 10 µM (inactive)
- GI50 (SK-MEL-28): > 10 µM (inactive)
- GI50 (SK-MEL-2): > 10 µM (inactive)
- GI50 (SK-MEL-5): > 10 µM (inactive)
- GI50 (SK-OV-3): > 10 µM (inactive)
- GI50 (SN12C): > 10 µM (inactive)
- GI50 (SNB-19): > 10 µM (inactive)
- GI50 (SNB-75): > 10 µM (inactive)
- GI50 (SR): > 10 µM (inactive)
- GI50 (SW-620): > 10 µM (inactive)
- GI50 (T47D): > 10 µM (inactive)
- GI50 (TK-10): > 10 µM (inactive)
- GI50 (U-251): > 10 µM (inactive)
- GI50 (UACC-257): > 10 µM (inactive)
- GI50 (UACC-62): > 10 µM (inactive)
- GI50 (UO-31): > 10 µM (inactive)

Reference: ChEMBL document CHEMBL1201862, “PubChem BioAssay data set” (2004)
